In US12514832B2, “Methods for using low-dose colchicine after myocardial infarction” (INSTITUT DE CARDIOLOGIE DE MONTREAL, priority 2019, dated 2026):
Where two headings read alike, the source gives them in different places.

Tested on: rs6916345 (LINC01108/JARID2, chromosome 6); rs10128117 (SEPHS1, chromosome 10)
Settings: colchicine treatment arm; for HR, gastrointestinal disorders / coef, gastrointestinal disorders: males + females
[1] = rs10128117 chr 10, EA A vs NEA T
[2] = rs10128117 effect allele A vs T
[3] = rs10906346 effect allele A vs G
[4] = rs11258319 effect allele T vs C
[5] = rs12210439 chr 6, EA A vs NEA G
[6] = rs41291319 effect allele A vs G
[7] = rs41291321 effect allele C vs G
[8] = rs58260827 effect allele CA vs C
[9] = rs61851591 chr 10, EA A vs NEA C
[10] = rs61851591 effect allele A vs C
[11] = rs61851592 chr 10, EA T vs NEA C
[12] = rs61851592 effect allele T vs C
[13] = rs61851593 chr 10, EA C vs NEA T
[14] = rs61851593 effect allele C vs T
[15] = rs61851598 effect allele A vs G
[16] = rs61851599 effect allele T vs C
[17] = rs70993041 chr 6, EA TAA vs NEA T
[18] = rs74795203 chr 10, EA G vs NEA A
[19] = rs74795203 effect allele G vs A
[20] = rs77006996 chr 10, EA T vs NEA C
[21] = rs77006996 effect allele T vs C
[22] = rs117874450 effect allele T vs C
[23] = rs552621122 effect allele A vs ATT

COc1cc2c(c(OC)c1OC)-c1ccc(OC)c(=O)cc1[C@@H](NC(C)=O)CC2 [Colchicine, colchicine]
HR, gastrointestinal disorders (rs7902331 effect allele T vs C): 2.4 | coef, gastrointestinal disorders (rs7902331 effect allele T vs C): 0.8596 | HR, gastrointestinal disorders (rs7916194 effect allele T vs A): 2.5 | coef, gastrointestinal disorders (rs7916194 effect allele T vs A): 0.9034 | HR, gastrointestinal disorders (rs7917549 effect allele A vs G): 2.4 | coef, gastrointestinal disorders (rs7917549 effect allele A vs G): 0.8864 | HR, gastrointestinal disorders (rs7919509 effect allele C vs T): 2.5 | coef, gastrointestinal disorders (rs7919509 effect allele C vs T): 0.9034 | Coefficient, genetic association with gastrointestinal disorders (rs9349955 chr 6, EA T vs NEA C): −0.633 | HR (hazard ratio), genetic association with gastrointestinal disorders (rs9349955 chr 6, EA T vs NEA C): 0.53 | Coefficient, genetic association with gastrointestinal disorders (rs9358044 chr 6, EA T vs NEA A): −0.610 | HR (hazard ratio), genetic association with gastrointestinal disorders (rs9358044 chr 6, EA T vs NEA A): 0.54 | Coefficient, genetic association with gastrointestinal disorders (rs9382993 chr 6, EA C vs NEA T): −0.636 | HR (hazard ratio), genetic association with gastrointestinal disorders (rs9382993 chr 6, EA C vs NEA T): 0.53 | HR, gastrointestinal disorders (rs9423893 effect allele A vs G): 2.4 | coef, gastrointestinal disorders (rs9423893 effect allele A vs G): 0.8599 | Coefficient, genetic association with gastrointestinal disorders (rs9476616 chr 6, EA G vs NEA C): −0.607 | HR (hazard ratio), genetic association with gastrointestinal disorders (rs9476616 chr 6, EA G vs NEA C): 0.55 | Coefficient, genetic association with gastrointestinal disorders [1]: 0.934 | HR (hazard ratio), genetic association with gastrointestinal disorders [1]: 2.55 | HR, gastrointestinal disorders [2]: 2.5 | coef, gastrointestinal disorders [2]: 0.9342 | HR, gastrointestinal disorders [3]: 2.5 | coef, gastrointestinal disorders [3]: 0.902 | HR, gastrointestinal disorders [4]: 2.4 | coef, gastrointestinal disorders [4]: 0.8718 | Coefficient, genetic association with gastrointestinal disorders [5]: −0.594 | HR (hazard ratio), genetic association with gastrointestinal disorders [5]: 0.55 | HR, gastrointestinal disorders [6]: 2.4 | coef, gastrointestinal disorders [6]: 0.8843 | HR, gastrointestinal disorders [7]: 2.4 | coef, gastrointestinal disorders [7]: 0.8594 | HR, gastrointestinal disorders [8]: 2.4 | coef, gastrointestinal disorders [8]: 0.8895 | Coefficient, genetic association with gastrointestinal disorders [9]: 0.917 | HR (hazard ratio), genetic association with gastrointestinal disorders [9]: 2.50 | HR, gastrointestinal disorders [10]: 2.5 | coef, gastrointestinal disorders [10]: 0.9168 | Coefficient, genetic association with gastrointestinal disorders [11]: 0.921 | HR (hazard ratio), genetic association with gastrointestinal disorders [11]: 2.51 | HR, gastrointestinal disorders [12]: 2.5 | coef, gastrointestinal disorders [12]: 0.9206 | Coefficient, genetic association with gastrointestinal disorders [13]: 0.921 | HR (hazard ratio), genetic association with gastrointestinal disorders [13]: 2.51 | HR, gastrointestinal disorders [14]: 2.5 | coef, gastrointestinal disorders [14]: 0.9206 | HR, gastrointestinal disorders [15]: 2.4 | coef, gastrointestinal disorders [15]: 0.8657 | HR, gastrointestinal disorders [16]: 2.4 | coef, gastrointestinal disorders [16]: 0.8665 | Coefficient, genetic association with gastrointestinal disorders [17]: −0.632 | HR (hazard ratio), genetic association with gastrointestinal disorders [17]: 0.53 | Coefficient, genetic association with gastrointestinal disorders [18]: 0.921 | HR (hazard ratio), genetic association with gastrointestinal disorders [18]: 2.51 | HR, gastrointestinal disorders [19]: 2.5 | coef, gastrointestinal disorders [19]: 0.9207 | Coefficient, genetic association with gastrointestinal disorders [20]: 0.917 | HR (hazard ratio), genetic association with gastrointestinal disorders [20]: 2.50 | HR, gastrointestinal disorders [21]: 2.5 | coef, gastrointestinal disorders [21]: 0.9167 | HR, gastrointestinal disorders [22]: 2.4 | coef, gastrointestinal disorders [22]: 0.8656 | HR, gastrointestinal disorders [23]: 2.4 | coef, gastrointestinal disorders [23]: 0.8864
